The source of these data is ChEMBL document CHEMBL1201862, “PubChem BioAssay data set” (2004).

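Briefly, cells in 96-well plates were exposed to five compound concentrations for 48 h, and endpoints were estimated by linear interpolation. The concentration for 50% growth inhibition is given as GI50.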 Calls of active or inactive are those of the source. Rule as the data show it: active = GI50 up to about 1.1 µM and inactive = higher.

Test systems include SW-620; OVCAR-5; TK-10; SF-295; SF-268; SK-MEL-2; SK-OV-3; HOP-92; K562; NCI-H460; NCI/ADR-RES; ACHN; Malme-3M; U-251; EKVX; PC-3; UACC-62; HT-29; RXF 393.
What all share (experiment): growth of human tumour cells (NCI), 48 h

For the molecule `C=C(NC(=O)C(=C)NC(=O)c1csc(C2=NC3c4csc(n4)C4NC(=O)c5csc(n5)C(C(C)(O)C(C)O)NC(=O)C5CSC(=N5)/C(=C/C)NC(=O)C(C(C)O)NC(=O)c5csc(n5)C3(CC2)NC(=O)C(C)NC(=O)C(=C)NC(=O)C(=C)NC(=O)C(C(C)C)NC2C=Cc3c(C(C)O)cc(nc3C2O)C(=O)OC4C)n1)C(N)=O` (stereo not given), the GI50 in the assay with SW-620 was 0.673 µM (active); in the assay with OVCAR-5, 4.09 µM (inactive); with TK-10 it was 4.18 µM (inactive); with SF-295, 26 µM (inactive); in the assay on SF-268 it was 7.19 µM (inactive); with SK-MEL-2, 2.22 µM (inactive). In addition, the GI50 is 19.6 µM (inactive) with SK-OV-3; 4.67 µM (inactive) in the assay on HOP-92; 0.774 µM (active) in the assay on K562; 4.7 µM (inactive) with NCI-H460; > 42.2 µM (inactive) in the assay with NCI/ADR-RES; 2.59 µM (inactive) in the assay on ACHN. Also, the GI50 is 0.239 µM (active) in the assay on Malme-3M; 0.877 µM (active) in the assay with U-251; 3.92 µM (inactive) in the assay on EKVX; 6.89 µM (inactive) in the assay on PC-3; 0.54 µM (active) in the assay on UACC-62; 1.32 µM (inactive) in the assay on HT-29. Further, the GI50 in the assay on RXF 393 was 0.708 µM (active).

Turning to `CN1Cc2cc(O)c(O)cc2C(O)C1` (stereo not given), the GI50 with SW-620, with OVCAR-5, with TK-10, in the assay with SF-295, in the assay on SF-268 and in the assay with SK-MEL-2 was > 100 µM (inactive) throughout. The GI50 with SK-OV-3, in the assay on HOP-92, with K562, in the assay with NCI-H460, in the assay on NCI/ADR-RES and with ACHN was > 100 µM (inactive) in each case. In addition, the GI50 in the assay on Malme-3M, in the assay on U-251, with EKVX, in the assay with PC-3, in the assay on UACC-62 and in the assay on HT-29 was > 100 µM (inactive) in each case. Further, the GI50 in the assay on RXF 393 was > 100 µM (inactive).

For `Cn1c(=O)sc2cc(C(=S)N3CCOCC3)ccc21`, the GI50 in the assay with SW-620, with OVCAR-5, in the assay on TK-10, in the assay with SF-295, with SF-268 and in the assay with SK-MEL-2 was > 100 µM (inactive) throughout. Also, the GI50 was > 100 µM (inactive) in the assay with SK-OV-3; 9.89 µM (inactive) in the assay with HOP-92; 41.2 µM (inactive) in the assay on K562; > 100 µM (inactive) in the assay on NCI-H460; > 73.1 µM (inactive) in the assay with NCI/ADR-RES; > 100 µM (inactive) in the assay with ACHN. Also, the GI50 with Malme-3M is 3.48 µM (inactive); with U-251, > 59.7 µM (inactive); with EKVX, > 28.8 µM (inactive); in the assay on PC-3, > 100 µM (inactive); with UACC-62, > 100 µM (inactive); in the assay with HT-29, > 79.3 µM (inactive). In addition, the GI50 in the assay with RXF 393 was > 100 µM (inactive).

As for `ClC1=NN=C(c2c[nH]c3ccccc23)CC1NCc1ccccc1` (stereo not given), the GI50 with SW-620, in the assay on OVCAR-5, in the assay with TK-10, in the assay on SF-295, in the assay on SF-268 and with SK-MEL-2 was > 100 µM (inactive) throughout. Also, the GI50 with SK-OV-3, in the assay with HOP-92, with K562, in the assay with NCI-H460, in the assay on NCI/ADR-RES and in the assay on ACHN was > 100 µM (inactive) throughout. Also, the GI50 with Malme-3M, with U-251, with EKVX, in the assay with PC-3, in the assay on UACC-62 and in the assay with HT-29 was > 100 µM (inactive) in each case. For the same molecule, in the assay on RXF 393, the GI50 was > 100 µM (inactive).

Regarding `COc1cc(C(O)CCBr)c(OC)cc1C` (stereo not given), the GI50 in the assay on SW-620 was 3.13 µM (inactive); in the assay with OVCAR-5, > 47.1 µM (inactive); in the assay on TK-10, > 66.8 µM (inactive); in the assay with SF-295 it was 36 µM (inactive); with SF-268 it was 31.4 µM (inactive); in the assay with SK-MEL-2, 16 µM (inactive). For the same molecule, the GI50 in the assay with SK-OV-3 is 35.3 µM (inactive); in the assay with HOP-92, 23.6 µM (inactive); in the assay with K562, 3.61 µM (inactive); in the assay on NCI-H460, 30.5 µM (inactive); in the assay on NCI/ADR-RES, 7.43 µM (inactive); with ACHN, 35.7 µM (inactive). In addition, the GI50 in the assay on Malme-3M was 22.5 µM (inactive); in the assay with U-251 it was 33.2 µM (inactive); in the assay on EKVX, > 100 µM (inactive); in the assay with PC-3, 6.65 µM (inactive); in the assay on UACC-62 it was 14.6 µM (inactive); with HT-29, 6.17 µM (inactive). Also, the GI50 with RXF 393 was 37.2 µM (inactive).

Regarding `COc1ccc(/C=N/NC(=O)c2ccc(O)c(CN(C)C)c2)cc1`, the GI50 with SW-620, with OVCAR-5, in the assay with TK-10, in the assay on SF-295, in the assay with SF-268 and with SK-MEL-2 was > 100 µM (inactive) each time. The GI50 is > 100 µM (inactive) in the assay with SK-OV-3; 57 µM (inactive) with HOP-92; > 100 µM (inactive) in the assay on K562; > 100 µM (inactive) in the assay on NCI-H460; > 100 µM (inactive) with NCI/ADR-RES; > 100 µM (inactive) in the assay with ACHN. For the same molecule, the GI50 with Malme-3M, with U-251, with EKVX, in the assay with PC-3, with UACC-62 and with HT-29 was > 100 µM (inactive) throughout. For the same molecule, in the assay on RXF 393, the GI50 is > 100 µM (inactive).

For `O=c1[nH]cnc2c1ncn2[C@H]1CO[C@@H](CO)[C@@H]1O`, the GI50 in the assay on SW-620, with OVCAR-5, in the assay with TK-10, in the assay on SF-295, with SF-268 and in the assay with SK-MEL-2 was > 100 µM (inactive) each time. The GI50 in the assay with SK-OV-3, with HOP-92, with K562, in the assay on NCI-H460, in the assay on NCI/ADR-RES and in the assay on ACHN was > 100 µM (inactive) throughout. Further, the GI50 with Malme-3M, with U-251, in the assay with EKVX, with PC-3, with UACC-62 and in the assay on HT-29 was > 100 µM (inactive) in each case. In the assay on RXF 393, the GI50 is > 100 µM (inactive).

For `CCN(CC)c1ccc(C2SCC(=O)N2c2ccc(NC(=O)c3ccc(N4C(=O)CSC4c4ccc(N(CC)CC)cc4)cc3)cc2)cc1` (stereo not given), the GI50 is > 100 µM (inactive) with SW-620; > 100 µM (inactive) in the assay with OVCAR-5; > 100 µM (inactive) with TK-10; 30.1 µM (inactive) with SF-295; > 100 µM (inactive) with SF-268; > 100 µM (inactive) in the assay with SK-MEL-2. For the same molecule, the GI50 with SK-OV-3 is > 100 µM (inactive); in the assay on HOP-92 it was > 100 µM (inactive); with K562 it was 47.6 µM (inactive); in the assay on NCI-H460, > 100 µM (inactive); in the assay with NCI/ADR-RES, > 100 µM (inactive); in the assay with ACHN, > 100 µM (inactive). The GI50 was > 100 µM (inactive) in the assay on Malme-3M; > 100 µM (inactive) in the assay with U-251; > 100 µM (inactive) with EKVX; > 100 µM (inactive) in the assay on PC-3; > 100 µM (inactive) with UACC-62; 75 µM (inactive) in the assay with HT-29. Moreover, the GI50 in the assay with RXF 393 was > 100 µM (inactive).

Regarding `CC(=O)OCCCC(NC(=O)OC(C)(C)C)C(=O)NC(CCCOC(C)=O)C(=O)NC(Cc1ccc([N+](=O)[O-])cc1)C(=O)NCC(=O)OCc1ccccc1` (stereo not given), the GI50 was 16.9 µM (inactive) with SW-620; 15.8 µM (inactive) in the assay with OVCAR-5; 18.5 µM (inactive) in the assay with TK-10; 11.9 µM (inactive) in the assay on SF-295; 20.2 µM (inactive) in the assay on SF-268; 15.4 µM (inactive) in the assay on SK-MEL-2. Besides, the GI50 with SK-OV-3 is 26.1 µM (inactive); in the assay with HOP-92 it was 18.4 µM (inactive); in the assay with K562 it was 23.7 µM (inactive); in the assay with NCI-H460, 15.6 µM (inactive); in the assay with NCI/ADR-RES, 19.2 µM (inactive); with ACHN it was 17.4 µM (inactive). Also, the GI50 with Malme-3M is 19.9 µM (inactive); in the assay with U-251, 18.4 µM (inactive); in the assay with EKVX, 18.3 µM (inactive); in the assay with PC-3, 17.2 µM (inactive); in the assay on UACC-62 it was 15.2 µM (inactive); in the assay with HT-29, 17.9 µM (inactive). In addition, the GI50 with RXF 393 is 13.1 µM (inactive).

In the case of `COC(=O)c1ccc(C)cc1C1CN=NC12Cc1c(C)cccc1C2=O` (stereo not given), the GI50 in the assay on SW-620 was 58.9 µM (inactive); with OVCAR-5 it was 73.5 µM (inactive); in the assay with TK-10 it was 99.3 µM (inactive); in the assay with SF-295, 50.4 µM (inactive); in the assay with SF-268, 52.2 µM (inactive); in the assay on SK-MEL-2 it was 43.5 µM (inactive). In addition, the GI50 in the assay with SK-OV-3 is 94.8 µM (inactive); with HOP-92 it was 38.6 µM (inactive); in the assay on K562, 47.5 µM (inactive); in the assay with NCI-H460, 64.7 µM (inactive); in the assay on NCI/ADR-RES it was 20.3 µM (inactive); in the assay on ACHN, 45.4 µM (inactive). Moreover, the GI50 is 58.2 µM (inactive) in the assay on Malme-3M; 42.1 µM (inactive) in the assay on U-251; > 100 µM (inactive) in the assay on EKVX; 40.2 µM (inactive) in the assay on PC-3; 28.4 µM (inactive) in the assay on UACC-62; 31.1 µM (inactive) in the assay with HT-29. Further, in the assay with RXF 393, the GI50 is 48.3 µM (inactive).
